# Reference: paper PMC8074941, “Synthesis of cyclotetrapeptide analogues of c-PLAI and evaluation of their antimicrobial properties” (Royal Society Open Science, 2021)
# Where a SMILES comes first, the peptide text is derived from it.
# Experiments:
# Staphylococcus aureus = settings: c-PLAI isolated from marine Pseudomonas sp.; cited from earlier work
# From the text: (§1) c-PLAI [cyclo(pro-leu-ala-ile)] is a cyclotetrapeptide that was isolated by Rungprom and co-workers in 2008 from marine Pseudomonas sp., which was associated with the Japanese seaweed Diginea sp.. All the amino acid residues of c-PLAI were reported to be L-configured. […] Later, c-PLAI was successfully synthesized using a convergent solution-phase method. ...
# Escherichia coli = settings: c-PLAI isolated from marine Pseudomonas sp.; cited from earlier work
# From the text: as §1
# Microsporum andouinii = settings: synthetic product of solution-phase synthesis; strain not given; cited from earlier work
# From the text: as §1
# Vibrio anguillarum = settings: c-PLAI isolated from marine Pseudomonas sp.; cited from earlier work
# From the text: as §1
# Bacillus subtilis = settings: c-PLAI isolated from marine Pseudomonas sp.; cited from earlier work
# From the text: as §1
# Micrococcus luteus = settings: c-PLAI isolated from marine Pseudomonas sp.; cited from earlier work
# From the text: as §1
# E. coli ATCC 11229 = experiment: microbe, parasite or virus in culture; settings: ATCC 11229, 18 h
# Procedure: (§2) Tools and materials were sterilized in an autoclave for 15 min at 121°C. Bacterial culture was grown in agar media (Mueller Hinton agar) by picking some bacterial colony using an inoculating loop, followed by incubation at 37°C for 24 h. Bacterial culture was then suspended in liquid media (Mueller Hinton Broth). The suspended bacterial culture was then incubated at 37°C for 24 h and standardized equal to 0.5 Mc Farland (2 × 10^8 CFU ml^−1). The culture was diluted into the concentration of 5 × 10^5 CFU ml^−1.
# (§3) Six tetrapeptides and six cyclotetrapeptides were dissolved in DMSO 2% with a concentration of 1 µg mL^−1. Each solution was dissolved gradually. Subsequently, 12 sample solutions, ciprofloxacin, nystatin, ketoconazole and DMSO 2% were incubated on a 96-well microplate at 37°C for 18 h. The result was interpreted using a spectrophotometer, with a wavelength of 600 nm. MIC was measured as the percentage of microbial inhibition and cell death.
# K. pneumonia ATCC 2357 = experiment: microbe, parasite or virus in culture; settings: ATCC 2357, 18 h
# Procedure: as §2, §3
# B. cereus ATCC 11778 = experiment: microbe, parasite or virus in culture; settings: ATCC 11778, 18 h
# Procedure: as §2, §3
# S. aureus ATCC 6538 = experiment: microbe, parasite or virus in culture; settings: ATCC 6538, 18 h
# Procedure: as §2, §3
# T. mentagrophyte = experiment: microbe, parasite or virus in culture; settings: 18 h
# Procedure: (§4) Tools and materials were sterilized in an autoclave for 15 min at 121°C. Fungal culture was grown in agar media (Potato Dextrose agar) by picking some fungal colony using an inoculating loop, followed by incubation at 30°C for 24–48 h. Fungal culture was then suspended in liquid media (Potato Dextrose Broth). The suspended fungal culture was then incubated for 24–48 h at 30°C. The suspended fungal culture was then incubated at 30°C for 24 h and standardized equal to 0.5 Mc Farland (2 × 10^8 CFU ml^−1). The culture was diluted into the concentration of 5 × 10^5 CFU ml^−1.
# as §3
# Klebsiella pneumoniae = settings: synthetic product of solution-phase synthesis; strain not given; cited from earlier work
# Procedure: as §1, with “... || The antimicrobial properties of all linear and cyclic tetrapeptides were evaluated (table 3). […] The lack of information regarding the microbial strains used in the previous report led us to the assumption that the use of different strains in the assay could lead to a differen ...” for “...”
# Candida albicans = settings: synthetic product of solution-phase synthesis; strain not given; cited from earlier work
# Procedure: as §1, with “... || The antimicrobial properties of all linear and cyclic tetrapeptides were evaluated (table 3). […] The lack of information regarding the microbial strains used in the previous report led us to the assumption that the use of different strains in the assay could lead to a differen ...” for “...”
# Pseudomonas aeruginosa = settings: synthetic product of solution-phase synthesis; strain not given; cited from earlier work
# Procedure: as §1, with “... || The antimicrobial properties of all linear and cyclic tetrapeptides were evaluated (table 3). […] The lack of information regarding the microbial strains used in the previous report led us to the assumption that the use of different strains in the assay could lead to a differen ...” for “...”
# [1] = test system: Trichophyton mentagrophytes; settings: synthetic product of solution-phase synthesis; strain not given; cited from earlier work
# Procedure: as §1, with “... || The antimicrobial properties of all linear and cyclic tetrapeptides were evaluated (table 3). […] The lack of information regarding the microbial strains used in the previous report led us to the assumption that the use of different strains in the assay could lead to a differen ...” for “...”
# C. albicans ATCC 10231 = settings: ATCC 10231, 18 h
# Procedure: as §4, §3
smiles,measurement,setting,value
"CC[C@H](C)[C@@H]1NC(=O)[C@H](C)NC(=O)[C@H](CC(C)C)NC(=O)[C@@H]2CCCN2C1=O [c-PLAI, cyclo(pro-leu-ala-ile)] (cyclo(PLAI))",antibacterial activity against Staphylococcus aureus,Staphylococcus aureus,inactive
same,antibacterial activity against Escherichia coli,Escherichia coli,inactive
same,minimum inhibitory concentration (MIC) Microsporum andouinii,Microsporum andouinii,6 µg/mL
same,antibacterial activity against Vibrio anguillarum,Vibrio anguillarum,inactive
same,antibacterial activity against Bacillus subtilis,Bacillus subtilis,inactive
same,antibacterial activity against Micrococcus luteus,Micrococcus luteus,inactive
same,minimum inhibitory concentration (MIC) E. coli ATCC 11229,E. coli ATCC 11229,250 µg/mL
same,minimum inhibitory concentration (MIC) K. pneumonia ATCC 2357,K. pneumonia ATCC 2357,500 µg/mL
same,minimum inhibitory concentration (MIC) B. cereus ATCC 11778,B. cereus ATCC 11778,125 µg/mL
same,minimum inhibitory concentration (MIC) S. aureus ATCC 6538,S. aureus ATCC 6538,>1000 µg/mL
same,minimum inhibitory concentration (MIC) T. mentagrophyte,T. mentagrophyte,125 µg/mL
same,minimum inhibitory concentration (MIC) Klebsiella pneumoniae,Klebsiella pneumoniae,6 µg/mL
same,minimum inhibitory concentration (MIC) Candida albicans,Candida albicans,6 µg/mL
same,minimum inhibitory concentration (MIC) Pseudomonas aeruginosa,Pseudomonas aeruginosa,6 µg/mL
same,minimum inhibitory concentration (MIC) Trichophyton mentagrophytes,[1],6 µg/mL
same,minimum inhibitory concentration (MIC) C. albicans ATCC 10231,C. albicans ATCC 10231,>1000 µg/mL
